From patent US20230372293A1, “SIRT1 INHIBITOR OR ANTAGONIST FOR USE IN PREVENTING AND/OR TREATING AN HPV INDUCED TUMOUR” (UNIVERSITA' DEGLI STUDI DEL PIEMONTE ORIENTALE "A. AVOGADRO", priority 2020, published 2023)
Where a SMILES comes first, the peptide text is derived from it. The star is where a group is joined. Cbz = O=C(OCc1ccccc1)*

Legend:
CaSki cells [1] = assay: MTT cell viability, EX527 and doxorubicin; format: cell-based; conditions: DX 0.5 μM for 16, 40, 64 h
Description: (§1) The observations described above prompted an analysis of whether HPV-positive cells in which SIRT1 is inhibited with consequent reduced expression of E6 and E7 and restoration of p53, could be more sensitive to the treatment with genotoxic drugs, such as doxorubicin (DX, SIGMA ALDRICH). Firstly, cell viability was determined following treatment with EX527 in combination with doxorubicin against HeLa and CaSki cells, using the MTT (3-(4,5-dimethylthiazol-2-yl)-2,5-diphenyltetrazolium bromide; SIGMA-ALDRICH) colorimetric assay. To this purpose, the cells were exposed to a concentration of EX527 of 80 μM or equal volume of solvent, dimethyl sulfoxide (DMSO, SIGMA ALDRICH) for 24 h, after this period elapsed the cells were treated with DX (1.5 μM for HeLa, 0.5 μM for CaSki) for a further 16, 40, 64 h. Subsequently, the supernatant was removed, the well was washed with PBS1× (SIGMA-ALDRICH) and incubated for 2 hours at 37° C. and 5% of CO2 with DMEM medium supplemented with 500 μg/mL MTT solution. […] On these solubilised cells, absorbance was measured at a wavelength of 570 nm, using the Victor3 multiplate reader spectrophotometer (Perkin Elmer). The absorbance value obtained from the sample treated with the carrier alone at the maximum dose was considered equal to 100% viability and the other values were related thereto.

HeLa cells [2] = assay: MTT cell viability, EX527 and doxorubicin; format: cell-based; conditions: DX 1.5 μM for 16, 40, 64 h
Description: as §1

CaSki cells [3] = assay: Cell cycle analysis by propidium iodide flow cytometry, EX527 and doxorubicin; format: cell-based; conditions: DX 0.5 μM 16 h
Description: (§2) For this purpose, HeLa and CaSki cells were treated with EX527 (80 μM) for 24 h, or with an equal volume of DMSO solvent and after this period elapsed, they were treated with DX (1.5 μM for HeLa, 0.5 μM for CaSki) for a further 16 h. After this incubation period at 37° C., the cells were labelled with propidium iodide (IP). Propidium iodide (3,8-diamino-5-diethylmethyl aminopropyl-6-phenylphenanthridine diiodide) (IP) is a synthetic dye characterised by low fluorescence (red-orange), capable of selectively binding to nucleic acids. It is known that the DNA content varies according to the phase of the cycle in which a cell is found. In particular, the G2 phase and mitosis (M) have twice as much DNA as the G1 phase, while during the DNA synthesis phase (S phase), the cell has an intermediate amount of DNA between the content in G1 and G2. Since the apoptotic cells, once resuspended in an appropriate buffer, release small DNA fragments, a reduction in IP fluorescence (related to the decrease in DNA content) can be observed in them. […] The cytofluorimetric analysis was performed on the FACSCalibur flow cytometer instrument (BD Biosciences) (excitation at 488 nm and emission 400 nm) and the results were analysed with the FlowJo programme.

HeLa cells [4] = assay: as above; format: cell-based; conditions: DX 1.5 μM 16 h
Description: as §2

CaSki cells [5] = assay: Annexin V-FITC/IP apoptosis assay, EX527 and doxorubicin; format: cell-based; conditions: DX 0.5 μM 24 h, FIG. 6
Description: (§3) For this purpose, HeLa, CaSki, and NOKE6E7 cells were treated with EX527 (80 μM) for 24 h, or with an equal volume of DMSO solvent and after this period elapsed, they were treated with DX (1.5 μM for HeLa and NOKE6E7, 0.5 μM for CaSki) for a further 24 h. After this incubation period at 37° C., the cells were processed using the “Annexin V-FITC Apoptosis Detection Kit” (BioLegend), a technique that allows the presence of apoptotic and necrotic cells to be detected by cytofluorimetric analysis. This assay exploits the ability of the annexin protein to bind to phosphatidylserine (PS) and thus give fluorescence in green thanks to the conjugated fluorophore (FITC, fluorescein isothiocyanate). PS is a phospholipid normally found on the inner side of the cell membrane. During apoptosis processes, on the other hand, PS is exposed to the outside and allows annexin V to bind to it. […] Subsequently, 400 μl of Annexin V Binding Buffer were added to each tube and the cells were analysed on the FACSCalibur flow cytometer instrument (BD Biosciences) (excitation at 488 nm, emission 518 nm and 400 nm for FITC and IP respectively). The results were then analysed with the FlowJo programme.

HeLa cells [6] = assay: as above; format: cell-based; conditions: DX 1.5 μM 24 h, FIG. 6
Description: as §3

NOKE6E7 cells = assay: as above; format: cell-based, human; conditions: DX 1.5 μM 24 h, FIG. 6
Description: as §3

CaSki cells [7] = assay: Western blot of E6 and E7 with proteosome inhibitor MG132; format: cell-based; conditions: DMSO then MG132 30 μM 8 h, vs DMSO control
Description: (§4) In order to determine whether the inhibition of E6 or E7 proteins was due to a transcriptional or post-translational modification, HeLa or CaSki cells, pre-treated for 48 h with EX527 at a concentration of 80 μM or equal volume of solvent, dimethyl sulfoxide (DMSO, SIGMA ALDRICH), were incubated with a proteosome inhibitor, MG132 (SIGMA ALDRICH) for 8 h at a concentration of 30 μM. After this incubation period at 37° C., the expression levels of viral E6 and E7 proteins were tested. The α-tubulin protein was included as an internal loading control. The cells were lysed with RIPA buffer (50 mM Tris-HCl pH 7.4; 150 mM NaCl; 1 mM EDTA; 1% Nonidet P-40; 0.1% SDS; 0.5% deoxycholate; protease inhibitors) for 30 min on ice. The samples were subsequently centrifuged for 10 minutes at 13000 rpm at 4° C. to remove cellular debris and then the proteins were quantified using the Bradford method (BIO-RAD). 30 μg of protein extract were taken, to which the appropriate amount of Laemmli sample buffer (50 mM Tris-HCl pH 6.8, 2% SDS, 10% glycerol, 2% β-mercaptoethanol) was added. The thus obtained solution was heated to 95° C. for 5 minutes and separated by polyacrylamide (12%)-SDS page gel electrophoresis. […]

HeLa cells [8] = assay: as above; format: cell-based; conditions: DMSO then MG132 30 μM 8 h, vs DMSO control
Description: as §4

Structure (SMILES) | mortality rate (MTT), DX alone (CaSki cells [1]) | mortality rate (MTT), DX alone (HeLa cells [2]) | cell death (sub-G0/G1 phase), DX (CaSki cells [3]) | cell death (sub-G0/G1 phase), DX (HeLa cells [4]) | percentage of apoptotic cells, DX (CaSki cells [5]) | percentage of apoptotic cells, DX (HeLa cells [6]) | percentage of apoptotic cells, DX (NOKE6E7 cells) | expression of E6 and E7 after DMSO plus MG132 (CaSki cells [7]) | expression of E6 and E7 after DMSO plus MG132 (HeLa cells [8])
COc1cccc2c1C(=O)c1c(O)c3c(c(O)c1C2=O)C[C@@](O)(C(=O)CO)C[C@@H]3O[C@H]1C[C@H](N)[C@H](O)[C@H](C)O1 [DX, doxorubicin] | mortality rate increases more | mortality rate increases more | increase in cell death (sub-G0/G1 phase) | increase in cell death (sub-G0/G1 phase) | increase in the percentage of apoptotic cells | increase in the percentage of apoptotic cells | increase in the percentage of apoptotic cells | – | –
CC(C)C[C@@H](C=O)NC(=O)[C@H](CC(C)C)NC(=O)[C@H](CC(C)C)NC(=O)OCc1ccccc1 [MG132] (Cbz-Leu-Leu-Leu-aldehyde) | – | – | – | – | – | – | – | recovery in the expression of the tested proteins | recovery in the expression of the tested proteins
